Experimental data: patent US20240240224A1, “FLUORESCENT D-TYPE AMINO ACID METABOLISM MARKER-BASED METHOD FOR DETECTING ANTIBACTERIAL DRUG SENSITIVITY TEST” (priority 2020, published 2024)
Converted amounts (≈) assume the structure as drawn. Blank lines part the entries; values can stand above or below the compound they belong to.

What was measured:
E. coli Ec11 [1] = assay: FaAST (FDAA metabolic labeling); assay type: cell-based, Escherichia coli; settings: unit assumed
Method: (§1) The specific experimental steps are as follows: • 1. Take the colony to be tested that has been cultured overnight on the plate and fully mix it in normal saline to make a uniform bacterial solution. Dilute it into CAMHB medium to make a bacterial solution with OD600=0.05. • 2. Add 45 μl antibiotic solutions to be tested of different concentrations to 96-well plates (see Table 3 for antibiotic concentration gradient settings). • 3. Add 50 μl of bacterial solution prepared in Step 1 to the 96-well plate and mix well. • 4.5 μl of 10 mM Cy5-DAA probe was added to each well (final concentration was 0.15 mM, and its structure was shown in FIG. 1). After mixing, the probe was incubated for 2 hours in the dark. • 5. After dilution with 200 μl PBS solution, the fluorescence intensity of each sample was detected by flow cytometry. The flow detection results are shown in the attached FIG. 4-5, showing the curve of antibiotic concentration gradient and fluorescence intensity, and the MIC (minimum inhibitory concentration) is obtained by referring to this curve.
(§2) Antibiotic resistant strains are shown in bold in the table below.

Ec ATCC 25922 [2] = assay: FaAST (FDAA metabolic labeling); assay type: cell-based, Escherichia coli; settings: unit assumed
Method: as §1, §2

Ec ATCC 25922 [3] = assay: BMD susceptibility test; assay type: cell-based, Escherichia coli; settings: unit assumed
E. coli Ec11 [4] = assay: BMD susceptibility test; assay type: cell-based, Escherichia coli; settings: unit assumed
K. pneumoniae Kp6 [5] = assay: BMD susceptibility test; assay type: cell-based, Klebsiella pneumoniae; settings: unit assumed
K. pneumoniae Kp6 [6] = assay: FaAST (FDAA metabolic labeling); assay type: cell-based, Klebsiella pneumoniae; settings: unit assumed
Method: as §1, with “cytometry.” for “cytometry. The flow detection results are shown in the attached FIG. 4-5, showing the curve of antibiotic concentration gradient and fluorescence intensity, and the MIC (minimum inhibitory concentration) is obtained by referring to this curve.”

Ec ATCC 25922 [7] = settings: cited from earlier work
E. faecalis ATCC29212 [8] = assay: BMD susceptibility test; assay type: cell-based, Enterococcus faecalis; settings: unit assumed
S. aureus ST59 [9] = assay: Vitek 2 drug sensitivity test; assay type: cell-based, Staphylococcus aureus; as to Sensibility: key: S: Drug sensitive; R: Drug resistance
S. aureus ST398 [10] = assay: Vitek 2 drug sensitivity test; assay type: cell-based, Staphylococcus aureus; as to Sensibility: key: S: Drug sensitive; R: Drug resistance
E. faecalis ATCC29212 [11] = assay: FaAST (FDAA metabolic labeling method); assay type: cell-based, Enterococcus faecalis; settings: unit assumed
Method: (§3) Take the colony to be tested that has been cultured overnight on the plate and fully mix it in normal saline to make a uniform bacterial solution. Dilute it into Cation-Adjusted Mueller Hinton Broth (CAMHB) culture medium to make a bacterial solution with OD600=0.05. • 2. Add 45 μl antibiotic solutions of different concentrations to 96-well plates (see Table 1 for antibiotic concentration gradient settings). • 3. Add 50 μl of the bacterial solution prepared in step 1 to the 96-well plate and mix well. • 4. Add 5 μl of 10 mM Cy5-DAA probe (final concentration 0.15 mM, see FIG. 1 for its structure) into each well, mix well, and cultivate in dark for 2 hours. • 5. Add 200 μl After PBS solution is diluted, the fluorescence intensity of each sample is detected by flow cytometry. The flow detection results are shown in FIG. 4-5, showing the curve of the change of antibiotic concentration gradient and fluorescence intensity. The MIC (minimum inhibitory concentration) can be obtained by referring to this curve.
(§4) Bacteria with antibiotic resistance are shown in bold in the following table.

E. faecium Ef26 [12] = assay: BMD susceptibility test; assay type: cell-based, Enterococcus faecium; settings: unit assumed
E. faecalis ATCC29212 [13] = settings: cited from earlier work
S. aureus ST59 [14] = assay: FDAA metabolic labeling susceptibility test (Cy5-DAA probe, flow cytometry); assay type: cell-based; settings: Staphylococcus aureus; S. aureus ST59; Cy5-DAA probe, 2 hours; read-out: MIC, FDAA
Method: as §3

S. aureus ST398 [15] = assay: as above; assay type: cell-based; settings: Staphylococcus aureus; S. aureus ST398; Cy5-DAA probe, 2 hours; read-out: MIC, FDAA
Method: as §3

E. faecium Ef26 [16] = assay: FaAST (FDAA metabolic labeling method); assay type: cell-based, Enterococcus faecium; settings: unit assumed
Method: as §3, §4

[17] = system: alveolar lavage fluid sample 0226, K. pneumoniae; assay: BMD susceptibility test of patient alveolar lavage fluid; assay type: cell-based, Klebsiella pneumoniae; settings: unit assumed
Description: (§5) The results of antimicrobial susceptibility test of alveolar lavage fluid of seven patients using FDAA and BMD methods are shown in the following table. The drug-resistant bacteria are shown in bold.

[18] = system: alveolar lavage fluid sample 0203, K. pneumoniae; assay: as above; assay type: cell-based, Klebsiella pneumoniae; settings: unit assumed
Description: as §5

[19] = system: alveolar lavage fluid sample 0204, A. baumannii; assay: as above; assay type: cell-based, Acinetobacter baumannii; settings: unit assumed
[20] = system: alveolar lavage fluid sample 0226, K. pneumoniae; assay: FaAST (FDAA) susceptibility test of patient alveolar lavage fluid; assay type: cell-based, Klebsiella pneumoniae; settings: unit assumed
Method: (§6) With reference to the flow chart of the rapid detection method of antimicrobial susceptibility test based on FDAA metabolic markers shown in FIG. 3, FDAA is used for the detection of antimicrobial susceptibility test of alveolar lavage fluid. The specific experimental steps are as follows: • 1. Mix bronchoalveolar lavage fluid (BALF, 10 ml) of patients with hospital acquired pneumonia with cation regulated broth medium (CAMHB, 10 ml) of twice the concentration to prepare the bacterial fluid to be tested. • 2. Add 45 μl antibiotic solutions of different concentrations to the 96-well plate separately (see Table 1 for antibiotic concentration gradient settings). • 3. Add 50 μl of the bacterial solution prepared in step 1 to the 96-well plate and mix well. • 4. Add 5 μl of 10 mM Cy5-DAA probe (final concentration 0.15 mM, see FIG. 1 for its structure) into each well, mix well, and then cultivate in dark for 2 hours. • 5. Add 200 μl PBS solution for dilution, and then use flow cytometry to detect the fluorescence intensity of each sample.
as §5

[21] = system: alveolar lavage fluid sample 0203, K. pneumoniae; assay: as above; assay type: cell-based, Klebsiella pneumoniae; settings: unit assumed
Method: as §6, §5

[22] = system: alveolar lavage fluid sample 0130, A. baumannii; assay: as above; assay type: cell-based, Acinetobacter baumannii; settings: unit assumed
Method: as §6, §5

[23] = system: alveolar lavage fluid sample 0206, A. baumannii; assay: as above; assay type: cell-based, Acinetobacter baumannii; settings: unit assumed
Method: as §6, §5

[24] = system: alveolar lavage fluid sample 0204, A. baumannii; assay: as above; assay type: cell-based, Acinetobacter baumannii; settings: unit assumed
Method: as §6, §5

[25] = system: alveolar lavage fluid sample 0219, A. baumannii; assay: as above; assay type: cell-based, Acinetobacter baumannii; settings: unit assumed
Method: as §6, §5

[26] = system: alveolar lavage fluid sample 0130, A. baumannii; assay: BMD susceptibility test of patient alveolar lavage fluid; assay type: cell-based, Acinetobacter baumannii; settings: unit assumed
Description: as §5

[27] = system: alveolar lavage fluid sample 0206, A. baumannii; assay: as above; assay type: cell-based, Acinetobacter baumannii; settings: unit assumed
Description: as §5

[28] = system: alveolar lavage fluid sample 0219, A. baumannii; assay: as above; assay type: cell-based, Acinetobacter baumannii; settings: unit assumed
Description: as §5

FaAST (MIC) (E. coli Ec11 [1]): 8 µg/mL
FaAST (MIC) (Ec ATCC 25922 [2]): 8 µg/mL
BMD (MIC) (Ec ATCC 25922 [3]): 4 µg/mL
BMD (MIC) (E. coli Ec11 [4]): 4 µg/mL
BMD (MIC) (K. pneumoniae Kp6 [5]): 2 µg/mL
FaAST (MIC) (K. pneumoniae Kp6 [6]): 4 µg/mL
SMILES: CO/N=C(\C(=O)N[C@@H]1C(=O)N2C(C(=O)O)=C(COC(N)=O)CS[C@H]12)c1ccco1 [Cefuroxime]
CLSI QC range (Ec ATCC 25922 [7]): 2-8

BMD (MIC) (E. faecalis ATCC29212 [8]): 2 µg/mL
MIC (S. aureus ST59 [9]; Staphylococcus aureus): ≥ 8 µg/mL
MIC (S. aureus ST398 [10]; Staphylococcus aureus): ≤ 0.25 µg/mL
FaAST (MIC) (E. faecalis ATCC29212 [11]): 2 µg/mL
BMD (MIC) (E. faecium Ef26 [12]): ≤ 0.25 µg/mL
MIC (S. aureus ST59 [14]): 8 µg/mL (≈ 10.9 µM)
MIC (S. aureus ST398 [15]): 0.5 µg/mL (≈ 0.681 µM)
FaAST (MIC) (E. faecium Ef26 [16]): ≤ 0.25 µg/mL
SMILES: CC[C@H]1OC(=O)[C@H](C)[C@@H](O[C@H]2C[C@@](C)(OC)[C@@H](O)[C@H](C)O2)[C@H](C)[C@@H](O[C@@H]2O[C@H](C)C[C@H](N(C)C)[C@H]2O)[C@](C)(O)C[C@@H](C)C(=O)[C@H](C)[C@@H](O)[C@]1(C)O [Erythromycin, erythromycin]
Sensibility (S. aureus ST59 [9]): R
Sensibility (S. aureus ST398 [10]): S
CLSI QC range (E. faecalis ATCC29212 [13]): 1-4

BMD (MIC) [17]: 0.25 µg/mL
BMD (MIC) [18]: 0.25 µg/mL
BMD (MIC) [19]: 0.5 µg/mL
FaAST (MIC) [20]: 0.25 µg/mL
FaAST (MIC) [21]: 0.25 µg/mL
FaAST (MIC) [22]: 32 µg/mL
FaAST (MIC) [23]: 32 µg/mL
FaAST (MIC) [24]: 4 µg/mL
FaAST (MIC) [25]: 64 µg/mL
BMD (MIC) [26]: 64 µg/mL
BMD (MIC) [27]: 32 µg/mL
BMD (MIC) [28]: 32 µg/mL
SMILES: C[C@@H](O)[C@H]1C(=O)N2C(C(=O)O)=C(S[C@@H]3CN[C@H](C(=O)N(C)C)C3)[C@H](C)[C@H]12 [Meropenem]
